Data taken from patent US8101736B2, “Polynucleotides and polypeptide of human KV1.3, compositions comprising same and methods of using same” (GeneGrafts Ltd., priority 2005, dated 2012).
Read-outs that look alike come from different tables or passages of the source.

Tests used:
[1] = tested on: Human dermal fibroblasts; experiment: Whole-cell patch clamp of transfected human dermal fibroblasts; assay type: cell-based; details: for potassium current amplitude: 7-20 days after nucleoporation, 12 cells per construct; for character of potassium current: FIG. 9 and FIG. 10
From the text: (§1) Voltage clamp assay was used to test the expression and function of the over-expressed channels.
The protocol is using Collagenase type 1 (Worthington Biochemical Corp., Lakewood, N.J., cat. LS004196, lot.X4J7447) for extractions of cells from a tissue. Primary cultures were generated by seeding in flasks with growth Medium: DMEM+HEPES (ADCF) with phenol red (HyClone part no SH3A1534.01, Lot no ANM20173 custom made for biogenics, L.T.D). Medium was supplemented with 10% FBS defined (HyClone; Cat no: SH30072.03; Lot no: APD21173); ITS+1 liquid media supplement (sigma # I-2521); Gentamycin 50 μg ml (Beit ha'emek; cat no#03-035-1) and Amphotericin B 2.5 μg ml (Beit ha'emek; Catalog No. 03-029-1).
Five days prior to transfection, cells were seeded in 150 cm^2 flasks. Medium was changed every 3 days. Cells reached 90% confluence in the day of the transfection.
For expression of the wt and mutation constructs in human dermal fibroblasts, Amaxa Nucleofector (Amaxa biosystem) and Human Dermal Fibroblast (NHDF) Nucleofector kit (Catalog No. VPD-1001) were used. Nucleofection was done according to the protocol of the manufacturer. Cells from passage 1-5 were used. The expression was characterized using fluorescent microscopy and the patch clamp technique. Seven days after nucleofection patch clamp analysis were performed.
(§2) Patch clamp recordings—Voltage-clamp recordings were performed using the whole-cell patch clamp technique. All measurements were done at room temperature. Patch pipettes (2-4 MΩ) were prepared from glass capillary tubes (Jencons Catalog No. 687-055) using a double-stage puller (Narishige pp-830). Currents were recorded with an Axon Instruments amplifier (Axopatch 200), digitized by DigiData 1322A digitizer (Axon instruments). Data was analyzed using pCLAMP software (version 8.0). Bath solution for the whole-cell recordings contained (in mM): 140 NaCl, 3 KCl, 2 CaCl2, 2 MgCl2, 10 Glucose and 10 HEPES (pH 7.4). Pipette solution for the whole-cell recordings (in mM): 140 KCl, 10 Na2 ATP, 1 CaCl2, 1 MgCl2, 10 EGTA and 5 HEPES (pH 7.4). Currents were elicited by 200 ms pulses from holding potential of −80 mV to −90 mv and then to 110 mV in increments of 20 mV.

[2] = wild type, from Marom et al. 1995; cited from earlier work
[3] = tested on: NIH/3T3 fibroblasts cell line; experiment: Whole-cell patch clamp of transfected NIH/3T3 cells; assay type: cell-based, Mouse; details: stably transfected NIH/3T3 cells; for inactivation character of potassium current: FIG. 7 and FIG. 8; for potassium current amplitude: whole-cell voltage clamp, room temperature
Description: Mouse fibroblasts cell line (NIH/3T3, ATCC ACCESSION NO. CRL-6361):
as §1
Selection was done using Neomycin sulfate (G418) antibiotic (Gibco Catalog No. 11811-031) which was added to the growth medium ([…]). Clones were isolated using cloning ring and cultured into 24 well plate (corning Catalog No. 3524). For expansion, confluent wells were transferred to six well plates and then to 100 mm culture dish (Corning Catalog No. 430167DMEM-complete+G418 10% FCS was thereafter replaced every 72 to 96 hours.
Total cell protein was extracted from the various clones using 300 μl cold RIPA buffer (with supplements; RIPA lysis buffer, 1× Santa Cruz Biotechnology, Catalog No. 24948) and screened by western blot analysis with rabbit anti-Kv1.3 antibody (CHEMICON, Catalog No. AB5178). Colonies that tested western blot positive were then analyzed by voltage clamp.
as §2

[4] = Transition rate of the channel from open to inactivation; details: H399W mutant

Molecule	potassium current amplitude [1]	character of potassium current [1]	transition rate from open to inactivation [2]	inactivation character of potassium current [3]	potassium current amplitude [3]	transition rate from open to inactivation [4]
wild type Kv1.3: wild type human Kv1.3 voltage-gated potassium channel (SEQ ID NO: 4, GenBank AAC31761, KCNA3)	600-2500 pA	typical potassium	0.0074	slowly inactivated	200-1500 pA	–
H399W: human Kv1.3 channel mutated to express tryptophan at position 399 instead of histidine (SEQ ID NO: 2), expressed from pIRES2-EGFP (protein, A recombinant polypeptide having the H399W mutation) MTVVPGDHLLEPEVADGGGAPPQGGCGGGGCDRYEPLPPSLPAAGEQDCCGERVVINISGLRFETQLKTLCQFPETLLGDPKRRMRYFDPLRNEYFFDRNRPSFDAILYYYQSGGRIRRPVNVPIDIFSEEIRFYQLGEEAMEKFREDEGFLREEERPLPRRDFQRQVWLLFEYPESSGPARGIAIVSVLVILISIVIFCLETLPEFRDEKDYPASTSQDSFEAAGNSTSGSRAGASSFSDPFFVVETLCIIWFSFELLVRFFACPSKATFSRNIMNLIDIVAIIPYFITLGTELAERQGNGQQAMSLAILRVIRLVRVFRIFKLSRHSKGLQILGQTLKASMRELGLLIFFLFIGVILFSSAVYFAEADDPTSGFSSIPDAFWWAVVTMTTVGNSYGDMWPVTIGGKIVGSLCAIAGVLTIALPVPVIVSNFNYFYHRETEGEEQSQYMHVGSCQHLSSSAEELRKARSNSTLSKSEYMVIEEGGMNHSAFPQTPFKTGNSTATCTTNN	400-1200 pA	fast inactivated	–	fast inactivated	150-1800 pA	0.025
